Source: PubChem BioAssay (NCI)
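Following 48 hours of exposure in 96-well plates, responses at five concentrations were used to interpolate endpoints linearly. TGI: total growth inhibition.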

Columns and labels:
Test in all cases: DTP human tumour cell line panel, 48 h
A498 renal = tested on: A498 renal
A549 NSCLC = tested on: A549 NSCLC
ACHN renal = tested on: ACHN renal
CAKI-1 renal = tested on: CAKI-1 renal
CCRF-CEM leukemia = tested on: CCRF-CEM leukemia
COLO 205 colon = tested on: COLO 205 colon
DLD-1 colon = tested on: DLD-1 colon
DMS 114 small cell lung = tested on: DMS 114 small cell lung
DMS 273 small cell lung = tested on: DMS 273 small cell lung
EKVX NSCLC = tested on: EKVX NSCLC
HCC-2998 colon = tested on: HCC-2998 colon
HCT-116 colon = tested on: HCT-116 colon
HL-60(TB) leukemia = tested on: HL-60(TB) leukemia
HOP-18 NSCLC = tested on: HOP-18 NSCLC
HOP-62 NSCLC = tested on: HOP-62 NSCLC
HOP-92 NSCLC = tested on: HOP-92 NSCLC
HT29 colon = tested on: HT29 colon
IGROV1 ovarian = tested on: IGROV1 ovarian
K-562 leukemia = tested on: K-562 leukemia
KM12 colon = tested on: KM12 colon
KM20L2 colon = tested on: KM20L2 colon
LOX IMVI melanoma = tested on: LOX IMVI melanoma
M19-MEL melanoma = tested on: M19-MEL melanoma
MALME-3M melanoma = tested on: MALME-3M melanoma
MOLT-4 leukemia = tested on: MOLT-4 leukemia
NCI-H226 lung = tested on: NCI-H226 lung
NCI-H23 lung = tested on: NCI-H23 lung
NCI-H522 lung = tested on: NCI-H522 lung
OVCAR-3 ovarian = tested on: OVCAR-3 ovarian
OVCAR-4 ovarian = tested on: OVCAR-4 ovarian
OVCAR-5 ovarian = tested on: OVCAR-5 ovarian
OVCAR-8 ovarian = tested on: OVCAR-8 ovarian
RXF 393 renal = tested on: RXF 393 renal
SF-268 CNS = tested on: SF-268 CNS
SF-295 CNS = tested on: SF-295 CNS
SF-539 CNS = tested on: SF-539 CNS
SK-MEL-2 melanoma = tested on: SK-MEL-2 melanoma
SK-MEL-28 melanoma = tested on: SK-MEL-28 melanoma
SK-MEL-5 melanoma = tested on: SK-MEL-5 melanoma
SK-OV-3 ovarian = tested on: SK-OV-3 ovarian
SN12C renal = tested on: SN12C renal
SNB-19 CNS = tested on: SNB-19 CNS
SNB-75 CNS = tested on: SNB-75 CNS
SNB-78 CNS = tested on: SNB-78 CNS
SR leukemia = tested on: SR leukemia
SW-620 colon = tested on: SW-620 colon
TK-10 renal = tested on: TK-10 renal
U251 CNS = tested on: U251 CNS
UACC-257 melanoma = tested on: UACC-257 melanoma
UACC-62 melanoma = tested on: UACC-62 melanoma
UO-31 renal = tested on: UO-31 renal
786-0 renal = tested on: 786-0 renal
HCT-15 colon = tested on: HCT-15 colon
LXFL 529 NSCLC = tested on: LXFL 529 NSCLC
NCI-H460 lung = tested on: NCI-H460 lung
RPMI-8226 leukemia = tested on: RPMI-8226 leukemia
XF 498 CNS = tested on: XF 498 CNS
M14 melanoma = tested on: M14 melanoma

O=c1oc2ccccc2n1P(=O)(Oc1ccc(Cl)cc1)n1c(=O)oc2ccccc21
TGI (A498 renal): > 100 µM
TGI (A549 NSCLC): > 100 µM
TGI (ACHN renal): > 100 µM
TGI (CAKI-1 renal): > 100 µM
TGI (CCRF-CEM leukemia): > 100 µM
TGI (COLO 205 colon): > 100 µM
TGI (DLD-1 colon): > 100 µM
TGI (DMS 114 small cell lung): > 100 µM
TGI (DMS 273 small cell lung): > 100 µM
TGI (EKVX NSCLC): > 100 µM
TGI (HCC-2998 colon): > 100 µM
TGI (HCT-116 colon): > 100 µM
TGI (HL-60(TB) leukemia): > 100 µM
TGI (HOP-18 NSCLC): > 100 µM
TGI (HOP-62 NSCLC): > 100 µM
TGI (HOP-92 NSCLC): > 100 µM
TGI (HT29 colon): > 100 µM
TGI (IGROV1 ovarian): > 100 µM
TGI (K-562 leukemia): > 100 µM
TGI (KM12 colon): > 100 µM
TGI (KM20L2 colon): > 100 µM
TGI (LOX IMVI melanoma): > 100 µM
TGI (M19-MEL melanoma): > 100 µM
TGI (MALME-3M melanoma): > 100 µM
TGI (MOLT-4 leukemia): > 100 µM
TGI (NCI-H226 lung): > 100 µM
TGI (NCI-H23 lung): > 100 µM
TGI (NCI-H522 lung): > 100 µM
TGI (OVCAR-3 ovarian): > 100 µM
TGI (OVCAR-4 ovarian): > 100 µM
TGI (OVCAR-5 ovarian): > 100 µM
TGI (OVCAR-8 ovarian): > 100 µM
TGI (RXF 393 renal): > 100 µM
TGI (SF-268 CNS): > 100 µM
TGI (SF-295 CNS): > 100 µM
TGI (SF-539 CNS): > 100 µM
TGI (SK-MEL-2 melanoma): > 100 µM
TGI (SK-MEL-28 melanoma): > 100 µM
TGI (SK-MEL-5 melanoma): > 100 µM
TGI (SK-OV-3 ovarian): > 100 µM
TGI (SN12C renal): > 100 µM
TGI (SNB-19 CNS): > 100 µM
TGI (SNB-75 CNS): > 100 µM
TGI (SNB-78 CNS): > 100 µM
TGI (SR leukemia): > 100 µM
TGI (SW-620 colon): > 100 µM
TGI (TK-10 renal): > 100 µM
TGI (U251 CNS): > 100 µM
TGI (UACC-257 melanoma): > 100 µM
TGI (UACC-62 melanoma): > 100 µM
TGI (UO-31 renal): > 100 µM

C=C1CN2CCc3c([nH]c4ccccc34)C2CC1CC(=O)N(C)C (centres undefined)
TGI (786-0 renal): > 309 µM
TGI (A549 NSCLC): > 309 µM
TGI (ACHN renal): > 309 µM
TGI (CAKI-1 renal): > 309 µM
TGI (CCRF-CEM leukemia): > 309 µM
TGI (COLO 205 colon): > 309 µM
TGI (DLD-1 colon): > 309 µM
TGI (DMS 114 small cell lung): > 309 µM
TGI (DMS 273 small cell lung): > 309 µM
TGI (EKVX NSCLC): > 309 µM
TGI (HCC-2998 colon): > 309 µM
TGI (HCT-116 colon): > 309 µM
TGI (HCT-15 colon): > 309 µM
TGI (HL-60(TB) leukemia): > 309 µM
TGI (HOP-18 NSCLC): > 309 µM
TGI (HOP-62 NSCLC): > 309 µM
TGI (HOP-92 NSCLC): > 309 µM
TGI (HT29 colon): > 309 µM
TGI (IGROV1 ovarian): > 309 µM
TGI (K-562 leukemia): > 309 µM
TGI (KM12 colon): > 309 µM
TGI (KM20L2 colon): > 309 µM
TGI (LOX IMVI melanoma): > 309 µM
TGI (LXFL 529 NSCLC): > 309 µM
TGI (M19-MEL melanoma): > 309 µM
TGI (MALME-3M melanoma): > 309 µM
TGI (MOLT-4 leukemia): > 309 µM
TGI (NCI-H226 lung): > 309 µM
TGI (NCI-H23 lung): > 309 µM
TGI (NCI-H460 lung): > 309 µM
TGI (NCI-H522 lung): > 309 µM
TGI (OVCAR-3 ovarian): > 309 µM
TGI (OVCAR-8 ovarian): > 309 µM
TGI (RPMI-8226 leukemia): > 309 µM
TGI (RXF 393 renal): > 309 µM
TGI (SF-268 CNS): > 309 µM
TGI (SF-295 CNS): > 309 µM
TGI (SF-539 CNS): > 309 µM
TGI (SK-MEL-2 melanoma): > 309 µM
TGI (SK-MEL-28 melanoma): > 309 µM
TGI (SK-MEL-5 melanoma): > 309 µM
TGI (SK-OV-3 ovarian): > 309 µM
TGI (SN12C renal): > 309 µM
TGI (SNB-19 CNS): > 309 µM
TGI (SR leukemia): > 309 µM
TGI (SW-620 colon): > 309 µM
TGI (TK-10 renal): > 309 µM
TGI (U251 CNS): > 309 µM
TGI (UACC-257 melanoma): > 309 µM
TGI (UACC-62 melanoma): > 309 µM
TGI (XF 498 CNS): > 309 µM

Cc1ncc(CBr)c(CBr)c1O
TGI (786-0 renal): > 100 µM
TGI (A498 renal): > 100 µM
TGI (ACHN renal): > 100 µM
TGI (CAKI-1 renal): > 100 µM
TGI (CCRF-CEM leukemia): > 100 µM
TGI (COLO 205 colon): > 100 µM
TGI (DLD-1 colon): > 100 µM
TGI (DMS 114 small cell lung): > 100 µM
TGI (DMS 273 small cell lung): > 100 µM
TGI (HCC-2998 colon): > 100 µM
TGI (HCT-116 colon): > 100 µM
TGI (HL-60(TB) leukemia): > 100 µM
TGI (HOP-62 NSCLC): > 100 µM
TGI (HOP-92 NSCLC): > 100 µM
TGI (IGROV1 ovarian): > 100 µM
TGI (K-562 leukemia): > 100 µM
TGI (LXFL 529 NSCLC): > 100 µM
TGI (M14 melanoma): > 100 µM
TGI (M19-MEL melanoma): > 100 µM
TGI (MALME-3M melanoma): > 100 µM
TGI (MOLT-4 leukemia): > 100 µM
TGI (NCI-H226 lung): > 100 µM
TGI (NCI-H23 lung): > 100 µM
TGI (NCI-H522 lung): > 100 µM
TGI (OVCAR-4 ovarian): > 100 µM
TGI (RPMI-8226 leukemia): > 100 µM
TGI (SF-268 CNS): > 100 µM
TGI (SF-539 CNS): > 100 µM
TGI (SK-MEL-2 melanoma): > 100 µM
TGI (SK-MEL-28 melanoma): > 100 µM
TGI (SK-OV-3 ovarian): > 100 µM
TGI (SN12C renal): > 100 µM
TGI (SNB-75 CNS): > 100 µM
TGI (SNB-78 CNS): > 100 µM
TGI (SR leukemia): > 100 µM
TGI (UACC-62 melanoma): > 100 µM
TGI (UO-31 renal): > 100 µM
TGI (XF 498 CNS): > 100 µM

O=c1n(CC2CS2)c2ccccc2n1CC1CS1 (centres undefined)
TGI (ACHN renal): > 100 µM
TGI (CAKI-1 renal): > 100 µM
TGI (CCRF-CEM leukemia): 79.7 µM
TGI (COLO 205 colon): > 100 µM
TGI (DMS 114 small cell lung): > 100 µM
TGI (DMS 273 small cell lung): > 100 µM
TGI (EKVX NSCLC): > 100 µM
TGI (HCC-2998 colon): > 100 µM
TGI (HCT-116 colon): 70.1 µM
TGI (HCT-15 colon): > 100 µM
TGI (HL-60(TB) leukemia): > 100 µM
TGI (HOP-62 NSCLC): > 100 µM
TGI (HOP-92 NSCLC): > 100 µM
TGI (IGROV1 ovarian): > 100 µM
TGI (K-562 leukemia): > 100 µM
TGI (KM12 colon): > 100 µM
TGI (LOX IMVI melanoma): > 100 µM
TGI (LXFL 529 NSCLC): > 100 µM
TGI (M14 melanoma): > 100 µM
TGI (M19-MEL melanoma): > 100 µM
TGI (MALME-3M melanoma): 74.4 µM
TGI (MOLT-4 leukemia): 69.1 µM
TGI (NCI-H522 lung): > 100 µM
TGI (OVCAR-3 ovarian): > 100 µM
TGI (OVCAR-4 ovarian): > 100 µM
TGI (RPMI-8226 leukemia): 88.6 µM
TGI (SF-268 CNS): > 100 µM
TGI (SK-MEL-2 melanoma): > 100 µM
TGI (SK-OV-3 ovarian): > 100 µM
TGI (SN12C renal): > 100 µM
TGI (SNB-75 CNS): > 100 µM
TGI (SR leukemia): > 100 µM
TGI (UACC-62 melanoma): > 100 µM
TGI (XF 498 CNS): > 100 µM
